≈ marks a conversion by molar mass, not a printed value. Calls of active or inactive are those of the source. The calls are words filed in the database; no cut-off is given here.
Assays:
[1] = test system: Enterovirus A71; assay: Antiviral activity against Enterovirus A71 infected in human RD cells assessed as reduction in cytopathic effect incubated for 2 to 3 days by MTS assay; assay type: functional, organism-based
[2] = Cytotoxicity against human RD cells assessed as reduction in cell viability incubated for 2 to 3 days by MTS assay; assay type: cell-based
[3] = biological target: Phosphatidylinositol 4-kinase beta (Homo sapiens, UniProt Q9UBF8); assay: Inhibition of recombinant human full length His6-tagged PI4KIII beta expressed in Sf9 cells incubated for 0 mins in presence of [gamma-33P ATP] by scintillation counting method
[4] = test system: Cystic fibrosis transmembrane conductance regulator (Homo sapiens), P13569 [F508del]; assay: Corrector activity at CFTR F508del mutant (unknown origin) transfected in human HEK293 membrane cells assessed as increase in CFTR level at 3 uM incubated for 24 hrs by using pHTomato probe based fluorescence inverted microscopic analysis; assay type: cell-based
[5] = test system: Coxsackievirus B3; assay: Antiviral activity against Human coxsackievirus B3 infected in human RD cells assessed as reduction in cytopathic effect incubated for 2 to 3 days by MTS assay; assay type: functional, organism-based; conditions: Enterovirus B
[6] = test system: Cystic fibrosis transmembrane conductance regulator (Homo sapiens), P13569 [F508del]; assay: Corrector activity at CFTR F508del mutant (unknown origin) transfected in human HEK293 membrane cells assessed as increase in anion permeability at 3 uM incubated for 24 hrs by using YFP probe based fluorescence inverted microscopic analysis; assay type: cell-based
[7] = Cytotoxicity against human RD cells infected with Human rhinovirus A2 assessed as reduction in cell viability incubated for 2 to 3 days by MTS assay; assay type: cell-based
[8] = test system: rhinovirus B14; assay: Antiviral activity against Human rhinovirus B14 infected in human RD cells assessed as reduction in cytopathic effect incubated for 2 to 3 days by MTS assay; assay type: functional, organism-based; conditions: Rhinovirus B
[9] = test system: rhinovirus A2; assay: Antiviral activity against Human rhinovirus A2 infected in human RD cells assessed as reduction in cytopathic effect incubated for 2 to 3 days by MTS assay; assay type: functional, organism-based; conditions: Rhinovirus A
[10] = test system: Cystic fibrosis transmembrane conductance regulator (Homo sapiens), P13569 [F508del]; assay: Corrector activity at CFTR F508del mutant (unknown origin) transfected in human HEK293 membrane cells assessed as increase in CFTR F508del level at 10 uM incubated for 24 hrs by using pHTomato probe based fluorescence inverted microscopic analysis; assay type: cell-based
[11] = Cytotoxicity against human RD cells infected with Human coxsackievirus B3 assessed as reduction in cell viability incubated for 2 to 3 days by MTS assay; assay type: cell-based
[12] = Cytotoxicity against human RD cells infected with Human rhinovirus B14 assessed as reduction in cell viability incubated for 2 to 3 days by MTS assay; assay type: cell-based
[13] = Metabolic stability in human liver microsomes assessed as compound remaining at 50 uM incubated for 1 hr by UV/LC-MS analysis; assay type: ADME, Microsome; conditions: read-out: Stability
[14] = biological target: T1, Albumin (Homo sapiens, UniProt P02768); assay: Binding affinity to human serum albumin assessed as maximum binding at 0.1 to 500 uM incubated for 30 mins by spectrofluorimetry; assay type: ADME; conditions: isolated protein, 0.5 h
[15] = Stability in human plasma assessed as half life measured upto 24 hrs by UV/LC-MS analysis; assay type: ADME, cell-free
[16] = Apparent permeability of compound by PAMPA assay; assay type: ADME
[17] = Aqueous solubility of compound by LC-MS analysis; assay type: physicochemical; conditions: buffer
[18] = biological target: T1, Albumin; assay: Binding affinity to human serum albumin assessed as dissociation constant incubated for 30 mins by spectrofluorimetry; assay type: ADME
[19] = Membrane retention of compound by PAMPA assay; assay type: ADME
[20] = Toxicity in C57BL/6 mouse assessed as inflammation of intestinal submucosa upto 180 mg/kg, sc observed after 4 and 72 hrs by hematoxylin and eosin staining based microscopy; assay type: organism-based; conditions: in vivo
[21] = Toxicity in C57BL/6 mouse assessed as effect on hepatic labyrinth of hepatocytes upto 180 mg/kg, sc observed after 4 and 72 hrs by hematoxylin and eosin staining based microscopy; assay type: organism-based; conditions: in vivo
[22] = Toxicity in C57BL/6 mouse assessed as effect on columnar lining cell upto 180 mg/kg, sc observed after 4 and 72 hrs by hematoxylin and eosin staining based microscopy; assay type: organism-based; conditions: in vivo
[23] = Selectivity index, ratio of CC50 for human RD cells to EC50 for Enterovirus A71 infected in human RD cells; assay type: toxicity, cell-based; conditions: read-out: Ratio CC50/EC50
[24] = Toxicity in C57BL/6 mouse assessed as effect on distribution of goblet cells upto 180 mg/kg, sc observed after 4 and 72 hrs by hematoxylin and eosin staining based microscopy; assay type: organism-based; conditions: in vivo
[25] = Toxicity in C57BL/6 mouse assessed as alveolar/interstitial inflammatory infiltrate upto 180 mg/kg, sc observed after 4 and 72 hrs by hematoxylin and eosin staining based microscopy; assay type: organism-based; conditions: in vivo
[26] = Toxicity in C57BL/6 mouse assessed as hemorrhage in lung upto 180 mg/kg, sc observed after 4 and 72 hrs by hematoxylin and eosin staining based microscopy; assay type: organism-based; conditions: in vivo
[27] = Acute toxicity in C57BL/6 mouse assessed as body weight loss upto 180 mg/kg, sc observed for 15 days; assay type: organism-based; conditions: in vivo, 360 h
[28] = Toxicity in C57BL/6 mouse assessed as epithelial hyperplasia upto 180 mg/kg, sc observed after 4 and 72 hrs by hematoxylin and eosin staining based microscopy; assay type: organism-based; conditions: in vivo
[29] = Toxicity in C57BL/6 mouse assessed as effect on alveolar microstructure upto 180 mg/kg, sc observed after 4 and 72 hrs by hematoxylin and eosin staining based microscopy; assay type: organism-based; conditions: in vivo
[30] = Acute toxicity in C57BL/6 mouse assessed as effect on motor coordination upto 180 mg/kg, sc observed for 15 days; assay type: organism-based; conditions: in vivo, 360 h
[31] = Acute toxicity in C57BL/6 mouse assessed as effect on behavior changes upto 180 mg/kg, sc observed for 15 days; assay type: organism-based; conditions: in vivo, 360 h
[32] = Enterovirus A, RD, read-out: EC50

Chain of Cystic fibrosis transmembrane conductance regulator (Homo sapiens), P13569 [F508del] (P13569 as listed by the source): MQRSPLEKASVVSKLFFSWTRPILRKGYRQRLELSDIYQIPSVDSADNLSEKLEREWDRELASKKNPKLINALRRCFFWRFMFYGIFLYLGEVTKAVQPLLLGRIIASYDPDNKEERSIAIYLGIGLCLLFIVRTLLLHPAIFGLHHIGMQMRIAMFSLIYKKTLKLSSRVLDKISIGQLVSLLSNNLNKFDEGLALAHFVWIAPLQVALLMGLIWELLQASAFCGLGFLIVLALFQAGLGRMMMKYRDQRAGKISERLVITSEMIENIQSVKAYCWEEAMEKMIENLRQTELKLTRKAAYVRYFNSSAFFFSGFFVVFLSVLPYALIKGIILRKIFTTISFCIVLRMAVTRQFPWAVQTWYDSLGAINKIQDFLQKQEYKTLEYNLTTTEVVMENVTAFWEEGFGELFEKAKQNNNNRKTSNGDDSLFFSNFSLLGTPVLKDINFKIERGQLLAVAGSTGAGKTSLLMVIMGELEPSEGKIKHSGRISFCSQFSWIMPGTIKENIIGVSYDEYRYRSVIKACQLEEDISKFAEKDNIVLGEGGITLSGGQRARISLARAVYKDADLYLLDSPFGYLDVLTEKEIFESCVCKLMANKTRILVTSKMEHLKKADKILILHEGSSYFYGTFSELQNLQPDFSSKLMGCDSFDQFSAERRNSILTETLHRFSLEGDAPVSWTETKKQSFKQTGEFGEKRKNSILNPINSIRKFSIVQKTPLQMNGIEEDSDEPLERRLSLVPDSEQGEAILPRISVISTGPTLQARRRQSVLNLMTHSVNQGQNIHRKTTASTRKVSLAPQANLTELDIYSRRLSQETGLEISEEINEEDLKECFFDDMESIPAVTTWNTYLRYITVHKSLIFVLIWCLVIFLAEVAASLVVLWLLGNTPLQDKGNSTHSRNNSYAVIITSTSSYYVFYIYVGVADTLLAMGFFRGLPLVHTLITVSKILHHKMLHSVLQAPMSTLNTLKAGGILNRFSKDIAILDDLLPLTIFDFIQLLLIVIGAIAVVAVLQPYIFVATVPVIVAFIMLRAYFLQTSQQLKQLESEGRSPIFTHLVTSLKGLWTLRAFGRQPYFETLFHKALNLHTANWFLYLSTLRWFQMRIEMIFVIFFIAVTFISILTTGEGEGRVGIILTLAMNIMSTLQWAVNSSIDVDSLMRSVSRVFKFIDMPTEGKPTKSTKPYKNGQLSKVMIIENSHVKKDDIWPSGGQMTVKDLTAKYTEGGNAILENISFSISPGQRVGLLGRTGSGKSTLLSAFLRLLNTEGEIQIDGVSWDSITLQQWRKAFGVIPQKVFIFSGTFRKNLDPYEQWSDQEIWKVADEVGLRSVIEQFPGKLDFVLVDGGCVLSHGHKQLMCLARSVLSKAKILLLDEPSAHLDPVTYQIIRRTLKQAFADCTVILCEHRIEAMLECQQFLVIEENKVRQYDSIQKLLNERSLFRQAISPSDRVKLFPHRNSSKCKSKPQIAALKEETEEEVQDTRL
T1 sequence (P02768 whole entry): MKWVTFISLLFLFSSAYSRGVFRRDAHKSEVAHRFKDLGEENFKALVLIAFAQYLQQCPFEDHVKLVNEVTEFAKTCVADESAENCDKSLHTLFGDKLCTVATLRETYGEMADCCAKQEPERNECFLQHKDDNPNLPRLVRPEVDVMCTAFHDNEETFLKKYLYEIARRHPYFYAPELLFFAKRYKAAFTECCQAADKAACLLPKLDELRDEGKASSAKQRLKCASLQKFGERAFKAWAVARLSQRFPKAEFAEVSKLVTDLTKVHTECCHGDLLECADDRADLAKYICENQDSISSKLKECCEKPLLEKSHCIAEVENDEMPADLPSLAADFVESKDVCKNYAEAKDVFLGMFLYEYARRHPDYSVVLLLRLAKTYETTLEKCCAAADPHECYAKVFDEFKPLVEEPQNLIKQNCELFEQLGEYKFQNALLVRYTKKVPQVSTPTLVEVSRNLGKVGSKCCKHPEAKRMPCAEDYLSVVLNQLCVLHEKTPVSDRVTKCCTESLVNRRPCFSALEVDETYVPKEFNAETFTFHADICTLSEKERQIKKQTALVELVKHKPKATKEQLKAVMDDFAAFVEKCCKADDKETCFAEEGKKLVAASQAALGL
Chain of Phosphatidylinositol 4-kinase beta (Q9UBF8 whole entry): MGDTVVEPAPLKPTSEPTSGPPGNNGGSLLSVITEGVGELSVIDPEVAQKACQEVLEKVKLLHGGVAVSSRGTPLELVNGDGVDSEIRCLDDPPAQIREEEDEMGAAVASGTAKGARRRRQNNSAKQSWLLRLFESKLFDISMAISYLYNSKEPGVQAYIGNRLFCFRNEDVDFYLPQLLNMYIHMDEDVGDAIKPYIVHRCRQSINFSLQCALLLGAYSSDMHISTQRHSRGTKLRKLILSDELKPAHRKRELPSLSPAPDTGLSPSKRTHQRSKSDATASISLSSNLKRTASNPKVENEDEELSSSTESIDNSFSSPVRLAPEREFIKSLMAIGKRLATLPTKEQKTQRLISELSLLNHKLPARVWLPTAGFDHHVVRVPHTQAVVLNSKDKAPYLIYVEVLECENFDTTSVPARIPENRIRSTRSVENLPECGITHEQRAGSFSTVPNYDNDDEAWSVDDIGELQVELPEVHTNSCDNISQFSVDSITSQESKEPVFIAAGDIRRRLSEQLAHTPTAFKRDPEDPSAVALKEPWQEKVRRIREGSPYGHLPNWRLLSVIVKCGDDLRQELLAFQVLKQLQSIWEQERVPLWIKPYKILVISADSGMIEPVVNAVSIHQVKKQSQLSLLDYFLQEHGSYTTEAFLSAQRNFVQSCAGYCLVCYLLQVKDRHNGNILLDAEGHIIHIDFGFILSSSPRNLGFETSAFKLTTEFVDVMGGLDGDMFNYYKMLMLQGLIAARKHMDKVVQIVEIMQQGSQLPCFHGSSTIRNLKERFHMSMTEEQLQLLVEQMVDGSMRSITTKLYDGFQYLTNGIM

Cc1nc(NC(=O)C(C)(C)C)sc1-c1csc(NCCC(=O)O)n1
EC50 [1, 32]: 6.48 µM | CC50 [2]: > 271 µM

CC(=O)Nc1nc(C)c(-c2csc(NC3CCC(C)CC3)n2)s1 (stereo not given)
EC50 [1, 32]: 0.34 µM | CC50 [2]: 10.9 µM

C=CS(=O)(=O)Nc1nc(-c2sc(NC(C)=O)nc2C)cs1
EC50 [1, 32]: > 290 µM | IC50 [3]: Not Active

CC(=O)Nc1nc(C)c(-c2csc(NCCO)n2)s1
EC50 [1, 32]: 12.6 µM | CC50 [2]: 333 µM

CC(=O)c1cccc(Nc2nc(-c3sc(NC(=O)OC(C)(C)C)nc3C)cs2)c1
Activity [4]: Active

CC(=O)Nc1nc(C)c(-c2csc(N(C)C3CCCCC3)n2)s1
EC50 [1, 32]: 0.88 µM | CC50 [2]: 19.4 µM

CC(=O)Nc1nc(C)c(-c2csc(N(CCO)c3cccc(C(C)=O)c3)n2)s1
EC50 [1]: Not Active

C=CC(=O)Nc1nc(-c2sc(NC(C)=O)nc2C)cs1
EC50 [1, 32]: 1.89 µM | CC50 [2]: 6.01 µM

Cc1nc(NC(=O)C(C)(C)C)sc1-c1csc(NCCCC(=O)O)n1
EC50 [1, 32]: 7.27 µM | CC50 [2]: 261 µM

Cc1nc(NC(=O)C(C)(C)C)sc1-c1csc(NCCO)n1
Activity [4]: Active | EC50 [5]: 2.3 µM | Activity [6]: inactive | CC50 [7]: 41.2 µM | EC50 [8]: 3.8 µM | EC50 [1, 32]: 1.83 µM | CC50 [2]: 361 µM | EC50 [9]: 5.4 µM | Activity [10]: Active | CC50 [11]: > 293 µM | CC50 [12]: 41.2 µM

Cc1nc(NC(=O)C(C)(C)C)sc1-c1csc(Nc2cccc(C(=O)O)c2)n1
Activity [4]: Active | EC50 [5]: 17 µM | Activity [6]: Active | CC50 [7]: 36.3 µM | EC50 [8]: 15.3 µM | EC50 [1, 32]: 0.42 µM | CC50 [2]: 32.1 µM | EC50 [9]: 9.7 µM | Activity [10]: Active | CC50 [11]: 111 µM | CC50 [12]: 36.3 µM

Cc1nc(NC(=O)OC(C)(C)C)sc1-c1csc(NCCO)n1
EC50 [1, 32]: 11.4 µM | CC50 [2]: > 421 µM

COc1ccc(Cl)cc1Nc1nc(-c2sc(NC(=O)c3ccccc3)nc2C)cs1
remaining at 1 h, 50 µM [13]: 98% | Bmax [14]: 88.82 | half-life [15]: 3.61 days | Papp [16]: 8.1 ×10⁻⁶ cm/s | solubility [17]: 0.02 µM (≈ 0.00914 µg/mL) | Kd [18]: 11.7 µM | R% [19]: 37.9%

CC(=O)c1cccc(N(CCO)c2nc(-c3sc(NC(=O)C(C)(C)C)nc3C)cs2)c1
Activity [4]: Active | EC50 [5]: 6.6 µM | Activity [20]: Non-Toxic | remaining at 1 h, 50 µM [13]: 98% | Activity [21]: Non-Toxic | Activity [6]: Active | Activity [22]: Non-Toxic | selectivity ratio [23]: > 67.2 | Bmax [14]: 81.73 | half-life [15]: 24.2 days | Activity [24]: Non-Toxic | Activity [25]: Non-Toxic | CC50 [7]: 16.8 µM | EC50 [8]: > 9.1 µM | Activity [26]: Non-Toxic | EC90 ([1]; Enterovirus A, RD): 5.78 µM | EC50 [1, 32]: < 0.43 µM | solubility ([17]; read-out: solubility): 0.1 µM (≈ 0.0459 µg/mL) | CC50 [2]: 28.9 µM | Kd [18]: 18.5 µM | Activity [27]: Non-Toxic | Activity [28]: Non-Toxic | EC50 [9]: 6.1 µM | Activity [10]: Active | Activity [29]: Non-Toxic | CC50 [11]: > 218 µM | Activity [30]: Non-Toxic | CC50 [12]: 16.8 µM | Activity [31]: Non-Toxic | R% [19]: < 0.1%

CC(=O)c1cccc(Nc2nc(-c3sc(NC(=O)c4ccccc4)nc3C)cs2)c1
Activity [4]: Active

Cc1nc(NC(=O)C(C)(C)C)sc1-c1csc(NCC(=O)O)n1
EC50 [1, 32]: 5.31 µM | CC50 [2]: > 282 µM

CC(=O)Nc1nc(C)c(-c2csc(NC3CCCCC3)n2)s1
EC50 [1, 32]: 1.1 µM | CC50 [2]: 25.5 µM

CC(=O)Nc1nc(C)c(-c2csc(N(CCO)C3CCCCC3)n2)s1
EC50 [5]: 16.1 µM | CC50 [7]: > 4.51 µM | EC50 [8]: 6.24 µM | EC50 [1, 32]: 1.1 µM | CC50 [2]: 16.4 µM | EC50 [9]: > 263 µM | CC50 [11]: 20.8 µM | CC50 [12]: 4.51 µM

Cc1nc(NC(=O)C(C)(C)C)sc1-c1csc(N(CCO)C2CCCCC2)n1
Activity [4]: Active | Activity [6]: Active | EC50 [1, 32]: 4.96 µM | CC50 [2]: 4.46 µM | Activity [10]: Active

CC(=O)Nc1nc(C)c(-c2csc(NC(=O)CBr)n2)s1
EC50 [1]: Not Active

Cc1nc(NC(=O)c2ccccc2)sc1-c1csc(NCCO)n1
EC50 [1]: Not Active

CCC(=O)Nc1nc(-c2sc(NC(C)=O)nc2C)cs1
EC50 [1]: Not Active

CC(=O)Nc1nc(C)c(-c2csc(NC(=O)/C=C/C(C)C)n2)s1
EC50 [1, 32]: 107 µM | CC50 [2]: 172 µM

Reference: ChEMBL document CHEMBL4321853, “Multitarget CFTR Modulators Endowed with Multiple Beneficial Side Effects for Cystic Fibrosis Patients: Toward a Simplified Therapeutic Approach †” (J Med Chem, 2019)
